# Experimental data published in ChEMBL document CHEMBL5104093, “A comprehensive review on β-lapachone: Mechanisms, structural modifications, and therapeutic potentials” (Eur J Med Chem, 2021).
# System: KB
# Assay: Cytotoxicity against human KB cells assessed as reduction in cell viability incubated for 48 hrs by MTT assay
# Assay type: functional, cell-based
# Conditions: not given
row,Compound,IC50
1,O=C1C(=O)c2ccccc2C2=C1CC(O)CO2 (stereo not drawn),7610 nM

# System: HeLa
# Assay: Cytotoxicity against human HeLa cells assessed as reduction in cell viability incubated for 48 hrs by MTT assay
# Assay type: functional, cell-based
# Conditions: not given
row,Compound,IC50
1,O=C1C(=O)c2ccccc2C2=C1CC(O)CO2 (stereo not drawn),7610 nM

# System: PC-3
# Assay: Cytotoxicity against human PC-3 cells assessed as reduction in cell viability incubated for 72 hrs by MTT assay
# Assay type: functional, cell-based
# Conditions: PC-3, 72 h
row,Compound,IC50
1,CC1(C)OC2=C(C(=O)C(=O)c3ccccc32)C1n1cc(C2=CCCCC2)nn1 (stereo not drawn),< 1250 nM
2,CC1(C)OC2=C(C(=O)C(=O)c3ccccc32)C1N=[N+]=[N-] (stereo not drawn),1190 nM
3,CC(C)(O)c1cn(C2C3=C(OC2(C)C)c2ccccc2C(=O)C3=O)nn1 (stereo not drawn),2800 nM
4,CC1(C)OC2=C(C(=O)C(=O)c3ccccc32)C1n1cc(CO)nn1 (stereo not drawn),3380 nM

# System: Staphylococcus aureus
# Assay: Antibacterial activity against Staphylococcus aureus 2065 MA assessed as diameter of bacterial growth inhibition by Mueller-Hinton broth based assay
# Assay type: functional
# Conditions: not given
row,Compound,zone diameter
1,CC1(C)OC2=C(C(=O)C(=O)c3ccccc32)C1S(=O)(=O)C1CCCCC1 (stereo not drawn),8 mm
2,CC1(C)OC2=C(C(=O)C(=O)c3ccccc32)C1Sc1c(F)c(F)c(F)c(F)c1F (stereo not drawn),10 mm
3,Cc1cccc(S(=O)(=O)C2C3=C(OC2(C)C)c2ccccc2C(=O)C3=O)c1 (stereo not drawn),7 mm

# System: MDA-MB-435
# Assay: Cytotoxicity against human MDA-MB-435 cells assessed as reduction in cell viability incubated for 72 hrs by MTT assay
# Assay type: functional, cell-based
# Conditions: MDA-MB-435, 72 h
row,Compound,IC50
1,CC1(C)OC2=C(C(=O)C(=O)c3ccccc32)C1n1cc(C2=CCCCC2)nn1 (stereo not drawn),< 1250 nM
2,CC1(C)OC2=C(C(=O)C(=O)c3ccccc32)C1N=[N+]=[N-] (stereo not drawn),1190 nM
3,O=C1C(=O)c2c(O)cccc2C2=C1CCC(c1ccc(F)cc1)O2 (stereo not drawn),150 nM
4,O=C1C(=O)c2c(O)cccc2C2=C1CCC(c1ccc(Br)cc1)O2 (stereo not drawn),150 nM
5,O=C1C(=O)c2c(O)cccc2C2=C1CCC(c1ccccc1)O2 (stereo not drawn),110 nM
6,O=C1C(=O)c2c(O)cccc2C2=C1CCC(c1ccc(Cl)cc1)O2 (stereo not drawn),150 nM
7,CC(C)(O)c1cn(C2C3=C(OC2(C)C)c2ccccc2C(=O)C3=O)nn1 (stereo not drawn),2800 nM
8,CC1(C)OC2=C(C(=O)C(=O)c3ccccc32)C1n1cc(CO)nn1 (stereo not drawn),3380 nM

# System: B16
# Assay: Cytotoxicity against mouse B16 cells assessed as reduction in cell viability incubated for 72 hrs by MTT assay
# Assay type: functional, cell-based
# Conditions: B16, 72 h
row,Compound,IC50
1,CC1(C)OC2=C(C(=O)C(=O)c3ccccc32)C1n1cc(C2=CCCCC2)nn1 (stereo not drawn),< 1250 nM
2,CC1(C)OC2=C(C(=O)C(=O)c3ccccc32)C1N=[N+]=[N-] (stereo not drawn),1190 nM
3,CC(C)(O)c1cn(C2C3=C(OC2(C)C)c2ccccc2C(=O)C3=O)nn1 (stereo not drawn),2800 nM
4,CC1(C)OC2=C(C(=O)C(=O)c3ccccc32)C1n1cc(CO)nn1 (stereo not drawn),3380 nM

# System: SF-295
# Assay: Cytotoxicity against human SF-295 cells assessed as reduction in cell viability incubated for 72 hrs by MTT assay
# Assay type: functional, cell-based
# Conditions: SF-295, 72 h
row,Compound,IC50
1,CC1(C)OC2=C(C(=O)C(=O)c3ccccc32)C1n1cc(C2=CCCCC2)nn1 (stereo not drawn),< 1250 nM
2,CC1(C)OC2=C(C(=O)C(=O)c3ccccc32)C1N=[N+]=[N-] (stereo not drawn),1190 nM
3,O=C1C(=O)c2c(O)cccc2C2=C1CCC(c1ccc(F)cc1)O2 (stereo not drawn),210 nM
4,O=C1C(=O)c2c(O)cccc2C2=C1CCC(c1ccc(Br)cc1)O2 (stereo not drawn),150 nM
5,O=C1C(=O)c2c(O)cccc2C2=C1CCC(c1ccccc1)O2 (stereo not drawn),110 nM
6,O=C1C(=O)c2c(O)cccc2C2=C1CCC(c1ccc(Cl)cc1)O2 (stereo not drawn),170 nM
7,CC(C)(O)c1cn(C2C3=C(OC2(C)C)c2ccccc2C(=O)C3=O)nn1 (stereo not drawn),2800 nM
8,CC1(C)OC2=C(C(=O)C(=O)c3ccccc32)C1n1cc(CO)nn1 (stereo not drawn),3380 nM

# System: HCT-8
# Assay: Cytotoxicity against human HCT-8 cells assessed as reduction in cell viability incubated for 72 hrs by MTT assay
# Assay type: functional, cell-based
# Conditions: HCT-8, 72 h
row,Compound,IC50
1,CC1(C)OC2=C(C(=O)C(=O)c3ccccc32)C1n1cc(C2=CCCCC2)nn1 (stereo not drawn),< 1250 nM
2,CC1(C)OC2=C(C(=O)C(=O)c3ccccc32)C1N=[N+]=[N-] (stereo not drawn),1190 nM
3,O=C1C(=O)c2c(O)cccc2C2=C1CCC(c1ccc(F)cc1)O2 (stereo not drawn),210 nM
4,O=C1C(=O)c2c(O)cccc2C2=C1CCC(c1ccc(Br)cc1)O2 (stereo not drawn),150 nM
5,O=C1C(=O)c2c(O)cccc2C2=C1CCC(c1ccccc1)O2 (stereo not drawn),110 nM
6,O=C1C(=O)c2c(O)cccc2C2=C1CCC(c1ccc(Cl)cc1)O2 (stereo not drawn),170 nM
7,CC(C)(O)c1cn(C2C3=C(OC2(C)C)c2ccccc2C(=O)C3=O)nn1 (stereo not drawn),2800 nM
8,CC1(C)OC2=C(C(=O)C(=O)c3ccccc32)C1n1cc(CO)nn1 (stereo not drawn),3380 nM

# System: MCF7
# Assay: Cytotoxicity against human MCF7 cells assessed as reduction in cell viability incubated for 72 hrs by MTT assay
# Assay type: functional, cell-based
# Conditions: MCF7, 72 h
row,Compound,IC50
1,CC(=O)OCC1CC2=C(OC1(C)C)c1ccccc1C(=O)C2=O (stereo not drawn),2730 nM
2,CC1(C)OC2=C(CC1CO)C(=O)C(=O)c1ccccc12 (stereo not drawn),5510 nM

# System: HepG2
# Assay: Cytotoxicity against human HepG2 cells assessed as reduction in cell viability incubated for 48 hrs by MTT assay
# Assay type: functional, cell-based
# Conditions: HepG2, 48 h
row,Compound,IC50
1,O=C1C(=O)c2ccccc2C2=C1CCCO2,920 nM
2,O=C1C(=O)c2ccccc2C2=C1CC(O)CO2 (stereo not drawn),7610 nM

# System: HL-60
# Assay: Cytotoxicity against human HL-60 cells assessed as reduction in cell viability incubated for 72 hrs by MTT assay
# Assay type: functional, cell-based
# Conditions: HL-60, 72 h
row,Compound,IC50
1,CC1(C)OC2=C(C(=O)C(=O)c3ccccc32)C1n1cc(C2=CCCCC2)nn1 (stereo not drawn),< 5000 nM
2,CC1(C)OC2=C(C(=O)C(=O)c3ccccc32)C1N=[N+]=[N-] (stereo not drawn),1190 nM
3,O=C1C(=O)c2c(O)cccc2C2=C1CCC(c1ccc(F)cc1)O2 (stereo not drawn),210 nM
4,O=C1C(=O)c2c(O)cccc2C2=C1CCC(c1ccc(Br)cc1)O2 (stereo not drawn),150 nM
5,O=C1C(=O)c2c(O)cccc2C2=C1CCC(c1ccccc1)O2 (stereo not drawn),110 nM
6,O=C1C(=O)c2c(O)cccc2C2=C1CCC(c1ccc(Cl)cc1)O2 (stereo not drawn),170 nM
7,CC(C)(O)c1cn(C2C3=C(OC2(C)C)c2ccccc2C(=O)C3=O)nn1 (stereo not drawn),2800 nM
8,CC1(C)OC2=C(C(=O)C(=O)c3ccccc32)C1n1cc(CO)nn1 (stereo not drawn),3380 nM

# System: NCI-H292
# Assay: Cytotoxicity against human NCI-H292 cells assessed as reduction in cell viability incubated for 72 hrs by MTT assay
# Assay type: functional, cell-based
# Conditions: NCI-H292, 72 h
row,Compound,IC50
1,CC(=O)OCC1CC2=C(OC1(C)C)c1ccccc1C(=O)C2=O (stereo not drawn),2260 nM
2,CC1(C)OC2=C(CC1CO)C(=O)C(=O)c1ccccc12 (stereo not drawn),5510 nM

# System: HEp-2
# Assay: Cytotoxicity against human HEp-2 cells assessed as reduction in cell viability incubated for 72 hrs by MTT assay
# Assay type: functional, cell-based
# Conditions: HEp-2, 72 h
row,Compound,IC50
1,CC(=O)OCC1CC2=C(OC1(C)C)c1ccccc1C(=O)C2=O (stereo not drawn),2260 nM
2,CC1(C)OC2=C(CC1CO)C(=O)C(=O)c1ccccc12 (stereo not drawn),5510 nM
